Data set [1] deals with recombinant HIV-1 reverse transcriptase (rRT) (Human immunodeficiency virus type 1 group M subtype B, UniProt P04585). In words: Quan-T-RT cell-free assay of recombinant HIV-1 reverse transcriptase activity. It counts as biochemical. As to the method: In addition, the activity of the test compounds to inhibit recombinant HIV-1 reverse transcriptase (rRT) activity was determined using the Quan-T-RT assay system (Amersham, Arlington Heights, Ill.), which utilizes the scintillation proximity assay principle. […] Data for both bioassays is reported as IC50 values.

The next data set has as its system HIV-1 strain HTLVIIIB
In words: p24 enzyme immunoassay of HIV replication in HTLVIIIB-infected peripheral blood mononuclear cells. It is filed as cell-based. As to the method: The HIV-1 strain HTLVIIIB (kindly provided by Dr. Neal T. Wetherall, VIROMED Laboratories, Inc.), was propagated in CCRF-CEM cells, and used in in vitro assays of the anti-HIV-1 activity of the synthesized novel derivatives. Cell-free supernatants of HTLVIIIB-infected CCRF-CEM cells were harvested, dispensed into 1 ml aliquots, and frozen at −70° C.
The incubated cells were then exposed to HIV-1 at a multiplicity of infection (MOI) of 0.1 during a one-hour adsorption period at 37° C. in a humidified 5% CO2 atmosphere. […] Aliquots of culture supernatants were removed from the wells on the 7th day after infection for p24 antigen assays. […] Ag.
The applied p24 enzyme immunoassay (EIA) was the unmodified kinetic assay commercially available from Coulter Corporation/Immunotech, Inc. (Westbrooke, Me.). In the assay, a murine monoclonal antibody against HIV core protein is coated onto microwell strips. Antigen (HIV core protein) present in the test culture supernatant samples binds the antibody and the bound antibody-antigen complex is quantitated. Percent viral inhibition was calculated by comparing the p24 values from the test substance-treated infected cells with p24 values from untreated infected cells (i.e., virus controls).

The test system of a further data set is non-infected PBMNC. In words: Microculture Tetrazolium Assay (MTA) of cell viability. It is filed as cell-based, human. The conditions noted are these: for pIC50: Table 7, concentration decreasing cellular proliferation by 50%. As for the experimental part: (§1) Ag. […] In brief, non-infected PBMNC were treated with test compounds or controls for 7 days under identical experimental conditions and 2,3-bis(2-methoxy-4-nitro-5-sulfophenyl)-5-[(phenylamino)-carbonyl]-2H-tetrazolium hydroxide ([…]), was added to quantitative cellular proliferation.

Test in data set [2]: as above
It is filed as cell-based, human. The conditions noted are these: human; for CC50 at 7 days: non-infected PBMNC, Table 4. As to the method:
as §1

Setting [3] is: Table 4, DABO compounds, purified recombinant HIV RT, read-out: IC50 [rRT].
The mark [4] stands for this setting: Table 6, recombinant HIV reverse transcriptase assay, read-out: IC50 rRT.
The mark [5] stands for this setting: Table 7, HIV-infected peripheral blood mononuclear cells, read-out: IC50 [p24].
The mark [6] stands for this setting: Human immunodeficiency virus 1, PBMC, read-out: IC50 [p24].
Setting [7] is: Table 5, HIV-infected PBMNC, read-out: IC50 p24.
[8] abbreviates: Human immunodeficiency virus 1, PBMC, Table 6, read-out: IC50 p24.
Setting [9] is: Human immunodeficiency virus 1, PBMC, HIV-infected human peripheral blood mononuclear cells, read-out: IC50 for inhibition of HIV replication (p24 production).

SMILES strings stand for the structures. pIC50: −log10 of the molar value. Like-named read-outs stand apart in the source and are kept apart here. A value given as a limit tells only on which side of the number the result lay.

For the molecule `Cc1cn([C@H]2C[C@H](N=[N+]=[N-])[C@@H](CO)O2)c(=O)[nH]c1=O` [AZT, reference compound], the pIC50 in data set [1] (setting [3]) is under 4.00; in data set [1] (setting [4]) it was under 4.00; in the data set on HIV-1 strain HTLVIIIB (3 of 3 independent experiments for I-4, read-out: IC50 anti-HIV activity (p24)), 8.10; in the data set on HIV-1 strain HTLVIIIB (Table 4, HTLVIIIB-infected peripheral blood mononuclear cells, read-out: IC50 [p24]), 7.40; in the data set on HIV-1 strain HTLVIIIB (Table 6, read-out: IC50 p24), 8.40; with HIV-1 strain HTLVIIIB (setting [5]), 8.40. In the data set on non-infected PBMNC, this molecule gave a pIC50 of 4.30. The molecule also had a CC50 in the data set with non-infected PBMNC (Table 4) of 50 µM.

Regarding `CSCSc1nc(Cc2ccccc2)c(C)c(=O)[nH]1` [Compound 3a, 5-methyl-2-[(methylthiomethyl)thio]-6-benzyl-pyrimidin-4-1H-one], the pIC50 in data set [1] (setting [3]) is 4.73; in the data set on HIV-1 strain HTLVIIIB (setting [6]), 5.35. Moreover, in data set [2], the CC50 at 7 days was over 100 µM.

As for `CCc1c(Cc2ccccc2)nc(SCSC)[nH]c1=O` [Compound 3b, 5-ethyl-2-[(methylthiomethyl)thio]-6-benzyl-pyrimidin-4-1H-one], the pIC50 was 5.01 in data set [1] (setting [3]) and 6.10 in the data set on HIV-1 strain HTLVIIIB (setting [6]). The half-maximal cytotoxic concentration (CC50) at 7 days in data set [2] was over 100 µM.

As for `CSCSc1nc(Cc2ccccc2)c(C(C)C)c(=O)[nH]1` [Compound 3c, 5-isopropyl-2-[(methylthiomethyl)thio]-benzyl-pyrimidin-4-1H-one], in the data set on HIV-1 strain HTLVIIIB, the “selectivity index (IC50[MTA]/IC50[p24])” value is listed as > 100,000. Further, the “fold more active than AZT and MKC-442” value in the data set on HIV-1 strain HTLVIIIB (HIV replication) is “more than 4 fold”. In addition, the negative logarithm of the IC50 (pIC50) is over 9.00 with HIV-1 strain HTLVIIIB (setting [6]) and over 9.00 with HIV-1 strain HTLVIIIB (Human immunodeficiency virus 1, PBMC, read-out: IC50 for inhibition of HIV replication (p24 production)). In data set [2], the CC50 at 7 days is over 100 µM. For the same molecule, the “inhibition of cellular proliferation as measured by MTA” value with non-infected PBMNC (no detectable cytotoxicity) is over 100 µM.

As to `CSCSc1nc(Cc2cc(C)cc(C)c2)c(C(C)C)c(=O)[nH]1` [Compound 3d, 5-isopropyl-2-[(methylthiomethyl)thio]-6-(3,5-dimethylbenzyl)-pyrimidin-4-1H-one], in data set [1] (setting [3]), the negative logarithm of the IC50 (pIC50) was 5.32.

For `S=C(NCCc1ccccn1)Nc1ccccn1` [Compound I-1, N-[2-(2-pyridylethyl)]-N′-[2-(pyridyl)]-thiourea], in the data set with HIV-1 strain HTLVIIIB (setting [7]), the pIC50 was 6.64.

`S=C(NCCN1CCCCC1)Nc1ccc(Br)cn1` [Compound I-3, N-[2-(1-piperidinoethyl)]-N′-[2-(5-bromopyridyl)]-thiourea]: the pIC50 in the data set with HIV-1 strain HTLVIIIB (setting [7]) was over 9.00.

`COc1ccc(OC)c(CCNC(=S)Nc2ccc(Br)cn2)c1` [Compound I-4, N-[2-(2,5-dimethoxyphenylethyl)]-N′-[2-(5-bromopyridyl)]-thiourea]: the melting point was in the range of 133 to 138 °C. The “times more potent than trovirdine against recombinant HIV RT” value in data set [1] is given as 8. Moreover, the pIC50 in the data set on HIV-1 strain HTLVIIIB (Human immunodeficiency virus 1, PBMC, 3 of 3 independent experiments for I-4, read-out: IC50 anti-HIV activity (p24)) is over 9.00. Also, in the data set on HIV-1 strain HTLVIIIB (Human immunodeficiency virus 1, PBMC, Table 5, HIV-infected PBMNC, read-out: IC50 p24), the negative-log IC50 (pIC50) was over 9.00.

`COc1ccccc1CCNC(=S)Nc1ccc(Br)cn1` [II-1, N-[2-(2-methoxyphenethyl)]-N′-[2-(5-bromopyridyl)]-thiourea] yielded a melting point of 143 to 145 °C. The pIC50 in data set [1] was 6.00. In addition, the pIC50 with HIV-1 strain HTLVIIIB (setting [8]) was 8.00.

`Fc1ccccc1CCNC(=S)Nc1ccc(Br)cn1` [II-2, N-[2-(2-fluorophenethyl)]-N′-[2-(5-bromopyridyl)]-thiourea] came in with a melting point of 156 to 157 °C. In data set [1], the pIC50 is 6.22. Further, in the data set with HIV-1 strain HTLVIIIB (setting [9]), the pIC50 is over 9.00. The pIC50 in the data set with HIV-1 strain HTLVIIIB (setting [8]) is over 9.00.

Molecule `S=C(NCCc1ccccc1Cl)Nc1ccc(Br)cn1` [II-3, N-[2-(2-chlorophenethyl)]-N′-[2-(5-bromopyridyl)]-thiourea] yielded a melting point of 137 to 139 °C. Further, the negative logarithm of the IC50 (pIC50) in data set [1] was 6.15. The pIC50 with HIV-1 strain HTLVIIIB (setting [9]) is over 9.00. The pIC50 in the data set on HIV-1 strain HTLVIIIB (setting [8]) was over 9.00.

For `COc1cccc(CCNC(=S)Nc2ccc(Br)cn2)c1` [II-4, N-[2-(3-metboxyphenethyl)]-N′-[2-(5-bromopyridyl)]-thiourea], the melting point was 155 to 156 °C. Besides, in data set [1], the pIC50 is 6.40 and the “times more potent than trovirdine against recombinant HIV RT” value is on record as “approximately 2”. In addition, the “selectivity index (IC50[MTA]/IC50[p24])” value in the data set on HIV-1 strain HTLVIIIB was > 3×10^4. In the data set on HIV-1 strain HTLVIIIB (setting [9]), the pIC50 was 8.52. Besides, the pIC50 in the data set on HIV-1 strain HTLVIIIB (setting [8]) is 8.52.

`Fc1cccc(CCNC(=S)Nc2ccc(Br)cn2)c1` [II-5, N-[2-(3-fluorophenethyl)]-N′-[2-(5-bromopyridyl)]-thiourea] registered a melting point of 171 to 172 °C. The negative logarithm of the IC50 (pIC50) in data set [1] is 6.15. In the data set on HIV-1 strain HTLVIIIB (setting [9]), the pIC50 was over 9.00. Moreover, in the data set on HIV-1 strain HTLVIIIB (setting [8]), the pIC50 is over 9.00.

With `S=C(NCCc1cccc(Cl)c1)Nc1ccc(Br)cn1` [II-6, N-[2-(3-chlorophenethyl)]-N′-[2-(5-bromopyridyl)]-thiourea], the melting point was in the range of 163 to 165 °C. The pIC50 in data set [1] (setting [4]) is 5.51.

`COc1ccc(CCNC(=S)Nc2ccc(Br)cn2)cc1` [II-7, N-[2-(4-methoxyphenethyl)]-N′-[2-(5-bromopyridyl)]-thiourea]: the melting point was 178 to 179 °C. Further, in the data set with HIV-1 strain HTLVIIIB (setting [9]), the pIC50 is 7.82. Further, the pIC50 with HIV-1 strain HTLVIIIB (setting [8]) was 7.82.

`Fc1ccc(CCNC(=S)Nc2ccc(Br)cn2)cc1` [II-8, N-[2-(4-fluorophenethyl)]-N′-[2-(5-bromopyridyl)]-thiourea] yielded a melting point of 177 to 178 °C. In addition, in data set [1], the “fold less active than meta and ortho F compounds (IC50[rRT])” value is on record as 10 fold. Besides, the pIC50 in data set [1] (setting [4]) was 5.19.

`S=C(NCCc1ccc(Cl)cc1)Nc1ccc(Br)cn1` [II-9, N-[2-(4-chlorophenethyl)]-N′-[2-(5-bromopyridyl)]-thiourea] registered a melting point of 180 to 183 °C.

On to `S=C(NCCN1CCCCC1)Nc1ccc(Br)cn1` [III-1, N-[2-(1-piperidinylethyl)]-N′-[2-(5-bromopyridyl)]-thiourea], for which the negative-log IC50 (pIC50) is over 9.00 in the data set with HIV-1 strain HTLVIIIB (setting [5]) and under 4.00 in the data set on non-infected PBMNC.

On to `S=C(NCCN1CCNCC1)Nc1ccc(Br)cn1` [III-2, N-[2-(1-piperizinylethyl)]-N′-[2-(5-bromopyridyl)]-thiourea], for which the results for the pIC50 in the data set with HIV-1 strain HTLVIIIB (setting [5]) and in the data set with non-infected PBMNC were 8.70 and under 4.00, respectively.

`S=C(NCCN1CCOCC1)Nc1ccc(Br)cn1` [III-3, N-[2-(1-morpholinylethyl)]-N′-[2-(5-bromopyridyl)]-thiourea]: the results for the pIC50 in the data set on HIV-1 strain HTLVIIIB (setting [5]) and in the data set on non-infected PBMNC were over 9.00 and under 4.00, respectively.

`CCOCn1c(Cc2ccccc2)c(C(C)C)c(=O)[nH]c1=O` [MKC-442, reference compound]: the CC50 at 7 days in data set [2] is over 100 µM.

Take `S=C(NCCc1ccccn1)Nc1ccc(Br)cn1` [Trovirdine, reference compound]: the pIC50 is 8.15 in the data set with HIV-1 strain HTLVIIIB (setting [6]); 8.15 in the data set on HIV-1 strain HTLVIIIB (Human immunodeficiency virus 1, PBMC, read-out: IC50 anti-HIV activity (p24)); 8.15 in the data set on HIV-1 strain HTLVIIIB (Human immunodeficiency virus 1, PBMC, read-out: IC50 p24). The IC50 at 7 days in data set [2] (Table 7, concentration decreasing cellular proliferation by 50%) is over 100 µM.

The term pIC50 denotes the negative decadic logarithm of the IC50, by convention in mol/L. In general, CC50 refers to the concentration at which the toxic effect on the cells reaches its halfway point. Read a high CC50 as better tolerance by the cells. The term melting point denotes the temperature of the solid-liquid transition. What is called IC50 is the point on the concentration scale where inhibition reaches its midpoint.

The record behind these values is patent publication US6925388B1, “Heterocyclic nonnucleoside inhibitors of reverse transcriptase” (Parker Hughes Institute, priority 1998, dated 2005).
